Measured values: ChEMBL document CHEMBL4680289, “10-(4-Phenylpiperazine-1-carbonyl)acridin-9(10H)-ones and related compounds: Synthesis, antiproliferative activity and inhibition of tubulin polymerization” (Bioorg Med Chem Lett, 2021)
Activity calls are given as the source filed them. The calls are words filed in the database; no cut-off is given here.

Tests used:
[1] = tested on: K562; assay: Antiproliferative activity against human K562 cells assessed as cell growth inhibition measured after 48 hrs by MTT assay; type: functional, cell-based; conditions: K562, 48 h
[2] = tested on: K562; assay: Induction of apoptosis in human K562 cells assessed as early apoptotic cells at 0.1 uM measured after 24 hrs by Annexin V-FITC/7-AAD staining based flow cytometric analysis relative to control; type: functional
[3] = tested on: K562; assay: Induction of apoptosis in human K562 cells assessed as late apoptotic cells at 0.3 micromol/L measured after 48 hrs by Annexin V-FITC/7-AAD staining based flow cytometric analysis (reference value: 2.49 %); type: functional; conditions: dose 0.3 µmol/L, at 0.3 µM
[4] = tested on: K562; assay: Induction of apoptosis in human K562 cells assessed as viable cells at 0.1 uM measured after 72 hrs by Annexin V-FITC/7-AAD staining based flow cytometric analysis relative to control; type: functional; conditions: read-out: Activity
[5] = tested on: K562; assay: Induction of apoptosis in human K562 cells assessed as late apoptotic cells at 0.1 uM measured after 12 hrs by Annexin V-FITC/7-AAD staining based flow cytometric analysis relative to control; type: functional
[6] = tested on: K562; assay: Induction of apoptosis in human K562 cells assessed as late apoptotic cells at 1 micromol/L measured after 48 hrs by Annexin V-FITC/7-AAD staining based flow cytometric analysis (reference value: 2.49 %); type: functional; conditions: dose 1 µmol/L, at 1 µM
[7] = tested on: K562; assay: Induction of apoptosis in human K562 cells assessed as viable cells at 0.1 uM measured after 24 hrs by Annexin V-FITC/7-AAD staining based flow cytometric analysis relative to control; type: functional; conditions: read-out: Activity
[8] = tested on: K562; assay: Induction of apoptosis in human K562 cells assessed as necrotic cells at 0.3 micromol/L measured after 48 hrs by Annexin V-FITC/7-AAD staining based flow cytometric analysis (reference value: 0.46 %); type: functional; conditions: dose 0.3 µmol/L, at 0.3 µM
[9] = tested on: K562; assay: Induction of apoptosis in human K562 cells assessed as necrotic cells at 0.01 micromol/L measured after 48 hrs by Annexin V-FITC/7-AAD staining based flow cytometric analysis (reference value: 0.46 %); type: functional; conditions: dose 0.01 µmol/L, at 0.01 µM
[10] = tested on: K562; assay: Induction of apoptosis in human K562 cells assessed as viable cells at 1 micromol/L measured after 48 hrs by Annexin V-FITC/7-AAD staining based flow cytometric analysis (reference value: 92.85 %); type: functional; conditions: K562, 48 h, dose 1 µmol/L, read-out: Activity
[11] = tested on: K562; assay: Induction of apoptosis in human K562 cells assessed as necrotic cells at 0.1 uM measured after 24 hrs by Annexin V-FITC/7-AAD staining based flow cytometric analysis relative to control; type: functional
[12] = tested on: K562; assay: Induction of apoptosis in human K562 cells assessed as late apoptotic cells at 0.1 uM measured after 24 hrs by Annexin V-FITC/7-AAD staining based flow cytometric analysis relative to control; type: functional
[13] = tested on: K562; assay: Induction of apoptosis in human K562 cells assessed as late apoptotic cells at 0.03 micromol/L measured after 48 hrs by Annexin V-FITC/7-AAD staining based flow cytometric analysis (reference value: 2.49 %); type: functional; conditions: dose 0.03 µmol/L, at 0.03 µM
[14] = tested on: K562; assay: Induction of apoptosis in human K562 cells assessed as early apoptotic cells at 0.03 micromol/L measured after 48 hrs by Annexin V-FITC/7-AAD staining based flow cytometric analysis (reference value: 4.2 %); type: functional; conditions: dose 0.03 µmol/L, at 0.03 µM
[15] = tested on: K562; assay: Induction of apoptosis in human K562 cells assessed as necrotic cells at 0.1 uM measured after 12 hrs by Annexin V-FITC/7-AAD staining based flow cytometric analysis relative to control; type: functional
[16] = tested on: K562; assay: Induction of apoptosis in human K562 cells assessed as necrotic cells at 0.1 micromol/L measured after 48 hrs by Annexin V-FITC/7-AAD staining based flow cytometric analysis (reference value: 0.46 %); type: functional; conditions: dose 0.1 µmol/L, at 0.1 µM
[17] = tested on: K562; assay: Induction of apoptosis in human K562 cells assessed as late apoptotic cells at 0.1 micromol/L measured after 48 hrs by Annexin V-FITC/7-AAD staining based flow cytometric analysis (reference value: 2.49 %); type: functional; conditions: dose 0.1 µmol/L, at 0.1 µM
[18] = tested on: K562; assay: Induction of apoptosis in human K562 cells assessed as early apoptotic cells at 0.01 micromol/L measured after 48 hrs by Annexin V-FITC/7-AAD staining based flow cytometric analysis (reference value: 4.2 %); type: functional; conditions: dose 0.01 µmol/L, at 0.01 µM
[19] = tested on: K562; assay: Induction of apoptosis in human K562 cells assessed as early apoptotic cells at 0.1 uM measured after 72 hrs by Annexin V-FITC/7-AAD staining based flow cytometric analysis relative to control; type: functional
[20] = biological target: Tubulin beta (Homo sapiens) (UniProt P68371+Q9H4B7+Q13509+P04350+Q3ZCM7+P07437+Q13885+Q9BVA1+Q9BUF5+A6NNZ2); assay: Inhibition of N,N'-Ethylenebis(iodoacetamide) binding to beta-tubulin colchicine binding site in human K562 cells assessed as reduction in EBI/beta-tubulin adduct formation at 1 to 10 uM preincubated for 2.5 hrs followed by EBI addition and measured after 1.5 hrs by Western blot analysis; type: cell-based; conditions: dose 1-10 µM, time 4.0 hrs
[21] = tested on: K562; assay: Cell cycle arrest in human K562 cells assessed as increase in cell accumulation at G2/M phase measured after 18 hrs by propidium iodide/RNase FACSCalibur staining based flow cytometry; type: functional; conditions: dose 0.003-1 µmol/L
[22] = tested on: K562; assay: Induction of apoptosis in human K562 cells assessed as early apoptotic cells at 1 micromol/L measured after 48 hrs by Annexin V-FITC/7-AAD staining based flow cytometric analysis (reference value: 4.2 %); type: functional; conditions: dose 1 µmol/L, at 1 µM
[23] = tested on: K562; assay: Induction of apoptosis in human K562 cells assessed as early apoptotic cells at 0.1 uM measured after 6 hrs by Annexin V-FITC/7-AAD staining based flow cytometric analysis relative to control; type: functional
[24] = tested on: K562; assay: Induction of apoptosis in human K562 cells assessed as early apoptotic cells at 0.3 micromol/L measured after 48 hrs by Annexin V-FITC/7-AAD staining based flow cytometric analysis (reference value: 4.2 %); type: functional; conditions: dose 0.3 µmol/L, at 0.3 µM
[25] = tested on: K562; assay: Induction of apoptosis in human K562 cells at 30 nM measured after 48 hrs by Annexin V-FITC/7-AAD staining based flow cytometric analysis; type: functional, cell-based
[26] = tested on: K562; assay: Induction of apoptosis in human K562 cells assessed as early apoptotic cells at 0.1 micromol/L measured after 48 hrs by Annexin V-FITC/7-AAD staining based flow cytometric analysis (reference value: 4.2 %); type: functional; conditions: dose 0.1 µmol/L, at 0.1 µM
[27] = tested on: K562; assay: Induction of apoptosis in human K562 cells assessed as necrotic cells at 1 micromol/L measured after 48 hrs by Annexin V-FITC/7-AAD staining based flow cytometric analysis (reference value: 0.46 %); type: functional; conditions: dose 1 µmol/L, at 1 µM
[28] = tested on: K562; assay: Induction of apoptosis in human K562 cells assessed as necrotic cells at 0.03 micromol/L measured after 48 hrs by Annexin V-FITC/7-AAD staining based flow cytometric analysis (reference value: 0.46 %); type: functional; conditions: dose 0.03 µmol/L, at 0.03 µM
[29] = tested on: K562; assay: Induction of apoptosis in human K562 cells assessed as viable cells at 0.1 uM measured after 12 hrs by Annexin V-FITC/7-AAD staining based flow cytometric analysis relative to control; type: functional; conditions: read-out: Activity
[30] = tested on: K562; assay: Induction of apoptosis in human K562 cells assessed as late apoptotic cells at 0.1 uM measured after 6 hrs by Annexin V-FITC/7-AAD staining based flow cytometric analysis relative to control; type: functional

COc1cc(OC)cc(N2CCN(C(=O)n3c4ccccc4c(=O)c4ccccc43)CC2)c1
IC50 [1]: 13 nM
Activity [2]: 26.44%
Activity [3]: 32.32%
viability at 0.1 µM [4]: 18.2%
Activity [5]: 2.86%
Activity [6]: 31.22%
viability at 0.1 µM [7]: 66.3%
Activity [8]: 0.35%
Activity [9]: 0.27%
viability at 1 µM [10]: 41%
Activity [11]: 0.23%
Activity [12]: 7.02%
Activity [13]: 25.72%
Activity [14]: 21.52%
Activity [15]: 0.29%
Activity [16]: 0.33%
Activity [17]: 22.22%
Activity [18]: 6.24%
Activity [19]: 11.57%
inhibition [20]: Active
Activity [21]: Dose-dependent effect
Activity [22]: 27.4%
Activity [23]: 4.84%
Activity [24]: 24.76%
Activity [25]: Active
Activity [26]: 26.08%
Activity [27]: 0.35%
Activity [28]: 0.53%
viability at 0.1 µM [29]: 87.8%
Activity [30]: 3.3%
